# Assays:
# Procathepsin L = Procathepsin L (Homo sapiens, UniProt P07711); test: (§1) Enzyme Inhibition Assay: Enzyme activity is measured by observing the increase in fluorescence intensity caused by cleavage of a peptide substrate containing a fluorophore whose emission is quenched in the intact peptide.Assay buffer: 100 mM potassium phosphate pH 6.5, EDTA-Na 5 mM, Triton X-100 0.001%, DTT 5 mM.Enzymes (all at 1 nM): human and mouse Cathepsin S, Cat K, Cat B, Cat L.Substrate (20 μM): Z-Val-Val-Arg-AMC, except for Cat K which uses Z-Leu-Arg-AMC (both from Bachem).Z=Benzyloxycarbonyl.AMC=7-Amino-4-Methyl-Coumarin.DTT=dithiothreitol.Final volume: 100 μL.Excitation 360 nm, Emission 465 nm.Enzyme is added to the substance dilutions in 96-well microtitre plates and the reaction is started with substrate. Fluorescence emission is measured over 20 minutes, during which time a linear increase is observed in the absence of inhibitor.
# Cathepsin S = Cathepsin S (Homo sapiens, UniProt P25774); test: as §1
# Chain of Cathepsin S (P25774 whole entry): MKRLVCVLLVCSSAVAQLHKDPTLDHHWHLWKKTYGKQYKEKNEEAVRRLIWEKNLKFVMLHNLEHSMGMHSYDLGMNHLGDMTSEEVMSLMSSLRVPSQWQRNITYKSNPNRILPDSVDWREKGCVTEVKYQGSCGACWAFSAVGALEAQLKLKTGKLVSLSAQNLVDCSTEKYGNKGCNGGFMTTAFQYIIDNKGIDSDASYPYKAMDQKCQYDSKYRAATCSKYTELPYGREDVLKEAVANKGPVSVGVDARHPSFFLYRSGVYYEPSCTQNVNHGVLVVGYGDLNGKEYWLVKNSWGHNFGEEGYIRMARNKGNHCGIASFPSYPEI
# Chain of Procathepsin L (P07711 whole entry): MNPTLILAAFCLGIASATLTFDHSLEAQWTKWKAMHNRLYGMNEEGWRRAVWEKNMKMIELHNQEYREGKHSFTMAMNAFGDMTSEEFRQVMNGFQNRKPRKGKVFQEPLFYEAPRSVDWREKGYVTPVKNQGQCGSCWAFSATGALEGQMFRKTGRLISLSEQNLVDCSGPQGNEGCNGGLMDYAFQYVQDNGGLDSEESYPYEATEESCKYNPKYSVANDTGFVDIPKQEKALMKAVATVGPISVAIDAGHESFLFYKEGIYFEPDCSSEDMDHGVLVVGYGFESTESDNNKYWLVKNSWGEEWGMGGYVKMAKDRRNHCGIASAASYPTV
smiles,measurement,setting,value
N#CC1(NC(=O)[C@@H]2C[C@@H](Sc3ncc(C(F)(F)F)cc3Cl)CN2C(=O)C2(c3ncc(Cl)cc3F)CC2)CC1,IC50,Procathepsin L,> 25000 nM
same,IC50,Cathepsin S,1030 nM
N#CC1(NC(=O)[C@@H]2C[C@@H](S(=O)(=O)c3cc(C(F)(F)F)ccc3Cl)CN2C(=O)C2(c3ncc(Cl)cc3F)CC2)CC1,IC50,Procathepsin L,56.8 nM
same,IC50,Cathepsin S,0.543 nM
N#CC1(NC(=O)[C@@H]2C[C@@H](S(=O)(=O)c3ccc(Br)cc3Cl)CN2C(=O)C2(c3ncc(Cl)cc3F)CC2)CC1,IC50,Procathepsin L,72.6 nM
same,IC50,Cathepsin S,0.474 nM

# — ChEMBL document CHEMBL3886859, “Pyridine derivatives” (2016)
